Among the targets are PTGER2 (EP2) (Homo sapiens, UniProt P43116); EP4 (Homo sapiens, UniProt P35408); EP2 (Homo sapiens, UniProt P43116); PTRGER4 (EP4) (Homo sapiens, UniProt P35408).
Holding throughout (assay): cell-based

26 molecules from patent publication US11712438B2, “Phenyl derivatives as PGE2 receptor modulators” (IDORSIA PHARMACEUTICALS LTD, priority 2017, dated 2023) can be followed below.

Structures are written as SMILES.

Sequence of PTRGER4 (EP4) (P35408 whole entry): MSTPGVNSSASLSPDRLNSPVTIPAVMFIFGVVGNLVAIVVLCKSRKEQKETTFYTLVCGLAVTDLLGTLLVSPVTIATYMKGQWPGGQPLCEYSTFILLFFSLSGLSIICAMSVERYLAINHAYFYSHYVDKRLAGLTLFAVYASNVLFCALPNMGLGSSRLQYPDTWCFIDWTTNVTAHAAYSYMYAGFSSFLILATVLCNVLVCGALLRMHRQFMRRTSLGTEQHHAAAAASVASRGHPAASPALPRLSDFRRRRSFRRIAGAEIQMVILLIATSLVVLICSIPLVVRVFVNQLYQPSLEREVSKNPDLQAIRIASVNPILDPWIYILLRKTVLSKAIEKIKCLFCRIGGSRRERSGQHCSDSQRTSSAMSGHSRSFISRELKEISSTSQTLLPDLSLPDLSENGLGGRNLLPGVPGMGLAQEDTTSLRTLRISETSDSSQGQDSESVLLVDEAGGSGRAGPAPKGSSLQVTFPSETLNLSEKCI
Sequence of EP4 (P35408 whole entry): as above
Sequence of PTGER2 (EP2) (P43116 whole entry): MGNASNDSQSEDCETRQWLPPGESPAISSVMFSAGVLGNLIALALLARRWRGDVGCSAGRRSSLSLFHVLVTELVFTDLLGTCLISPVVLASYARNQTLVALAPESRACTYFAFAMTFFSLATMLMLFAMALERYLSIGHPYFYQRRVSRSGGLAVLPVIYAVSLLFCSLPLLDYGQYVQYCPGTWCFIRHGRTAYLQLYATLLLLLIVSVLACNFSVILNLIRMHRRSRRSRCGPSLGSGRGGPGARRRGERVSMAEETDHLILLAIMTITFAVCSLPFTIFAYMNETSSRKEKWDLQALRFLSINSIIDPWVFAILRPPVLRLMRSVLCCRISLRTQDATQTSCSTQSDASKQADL
Sequence of EP2 (P43116 whole entry): as above

The term IC50 denotes the concentration at which inhibition is half-maximal. Read a low IC50 as greater potency. Take `Cc1ccc(CCNc2cc(-c3cc(C(F)(F)F)c(C(=O)O)s3)ncn2)cc1` [Example 62, 5-[6-(2-p-Tolyl-ethylamino)-pyrimidin-4-yl]-3-trifluoromethyl-thiophene-2-carboxylic acid]: the IC50 against PTGER2 (EP2) came to 0.324 µM; against EP4, 0.079 µM; at EP2, 0.176 µM; at PTRGER4 (EP4) it was 0.108 µM.

For the molecule `CCOc1c(C(=O)O)sc(-c2cc(NCCc3c(F)cc(Br)cc3F)ncn2)c1Cl` [Example 27, 5-{6-[2-(4-Bromo-2,6-difluoro-phenyl)-ethylamino]-pyrimidin-4-yl}-4-chloro-3-ethoxy-thiophene-2-carboxylic acid], the IC50 was 0.023 µM against PTGER2 (EP2), 0.097 µM on EP4, 0.05 µM on EP2 and 0.168 µM at PTRGER4 (EP4).

Turning to `CCCCOc1cc(-c2cc(NCCc3c(F)cc(Br)cc3F)ncn2)cc(F)c1C(=O)O` [Example 167, 4-{6-[2-(4-Bromo-2,6-difluoro-phenyl)-ethylamino]-pyrimidin-4-yl}-2-butoxy-6-fluoro-benzoic acid], the IC50 at PTGER2 (EP2) was determined as 0.042 µM; against EP4, 1.08 µM; on EP2, 0.198 µM; at PTRGER4 (EP4) it was 0.431 µM.

Take `CCOc1cc(-c2cc(NCCc3c(F)cc(Br)cc3F)ncn2)[nH]c1C(=O)O` [Example 268, 5-{6-[2-(4-Bromo-2,6-difluoro-phenyl)-ethylamino]-pyrimidin-4-yl}-3-ethoxy-1H-pyrrole-2-carboxylic acid]: the concentration for half-maximal inhibition (IC50) amounted to 0.019 µM against PTGER2 (EP2), 0.225 µM on EP4, 0.021 µM against EP2 and 0.294 µM on PTRGER4 (EP4).

As for `CCOc1cc(-c2cc(NCCc3ccc(Cl)c(Cl)c3C)ncn2)sc1C(=O)O` [Example 181, 5-{6-[2-(3,4-Dichloro-2-methyl-phenyl)-ethylamino]-pyrimidin-4-yl}-3-ethoxy-thiophene-2-carboxylic acid], the IC50 at PTGER2 (EP2) turned out to be 0.165 µM; against EP4 it was 0.034 µM; against EP2, 0.092 µM; against PTRGER4 (EP4), 0.096 µM.

With `CCOc1cc(-c2cc(NCCc3ccc(C(F)(F)F)cc3OC(F)F)ncn2)sc1C(=O)O` [Example 219, 5-{6-[2-(2-Difluoromethoxy-4-trifluoromethyl-phenyl)-ethylamino]-pyrimidin-4-yl}-3-ethoxy-thiophene-2-carboxylic acid], the half-inhibitory concentration (IC50) against PTGER2 (EP2) is 0.302 µM; against EP4, 0.042 µM; against EP2 it was 0.332 µM; on PTRGER4 (EP4) it was 0.096 µM.

Consider `CC(C)COc1cc(-c2cc(NCCc3c(F)cc(Br)cc3F)ncn2)ccc1C(=O)O` [Example 237, 4-{6-[2-(4-Bromo-2,6-difluoro-phenyl)-ethylamino]-pyrimidin-4-yl}-2-isobutoxy-benzoic acid], for which the IC50 against PTGER2 (EP2) was 0.072 µM; at EP4 it was 0.668 µM; against EP2, 0.128 µM; on PTRGER4 (EP4), 0.419 µM.

Consider `CCCOc1cc(Br)ccc1CCNc1cc(-c2cc(OCC)c(-c3noc(=O)[nH]3)s2)ncn1` [Example 89, 3-(5-{6-[2-(4-Bromo-2-propoxy-phenyl)-ethylamino]-pyrimidin-4-yl}-3-ethoxy-thiophen-2yl)-[1,2,4]oxadiazol-5(4H)-one], for which the IC50 against PTGER2 (EP2) worked out at 0.017 µM; against EP4 it was 0.058 µM; against EP2, 0.01 µM; at PTRGER4 (EP4), 0.003 µM.

For `CCOc1nc(-c2cc(NCCc3c(F)cc(Br)cc3F)ncn2)sc1C(=O)O` [Example 148, 2-{6-[2-(4-Bromo-2,6-difluoro-phenyl)-ethylamino]-pyrimidin-4-yl}-4-ethoxy-thiazole-5-carboxylic acid], the IC50 at PTGER2 (EP2) was determined as 0.02 µM; against EP4 it was 0.008 µM; against EP2, 0.019 µM; at PTRGER4 (EP4), 0.009 µM.

As to `CCOc1cc(-c2cc(NCCc3c(F)cc(Br)cc3F)ncn2)ccc1Cc1noc(=S)[nH]1` [Example 283, 3-(4-{6-[2-(4-Bromo-2,6-difluoro-phenyl)-ethylamino]-pyrimidin-4-yl}-2-ethoxy-benzyl)-[1,2,4]oxadiazole-5(4H)-thione], the IC50 against PTGER2 (EP2) was 0.118 µM; against EP4 it was 0.595 µM; against EP2, 0.959 µM; at PTRGER4 (EP4), 0.245 µM.

`CCOc1c(C(N)=O)sc(-c2cc(NCCc3c(F)cc(Br)cc3F)ncn2)c1Cl` [Example 293, 5-{6-[2-(4-Bromo-2,6-difluoro-phenyl)-ethylamino]-pyrimidin-4-yl}-4-chloro-3-ethoxy-thiophene-2-carboxylic acid amide]: the IC50 at PTGER2 (EP2) came to 0.138 µM; on EP4 it was 0.326 µM; against EP2, 0.9 µM; against PTRGER4 (EP4), 0.041 µM.

Take `CCOc1cc(-c2cc(NCCc3ccc(SC)cc3OC)ncn2)ccc1C(=O)O` [Example 6, 2-Ethoxy-4-{6-[2-(2-methoxy-4-methylsulfanyl-phenyl)-ethylamino]-pyrimidin-4-yl}-benzoic acid]: the concentration for half-maximal inhibition (IC50) against PTGER2 (EP2) is 1.35 µM; at EP4 it was 0.573 µM; at EP2, 0.702 µM; at PTRGER4 (EP4), 1.21 µM.

Consider `CCOc1cc(-c2cc(NCCc3ccc(C)c(C)c3)ncn2)sc1-c1noc(=O)[nH]1` [Example 83, 3-(5-{6-[2-(3,4-Dimethyl-phenyl)-ethylamino]-pyrimidin-4-yl}-3-ethoxy-thiophen-2-yl)-[1,2,4]oxadiazol-5(4H)-one], for which the IC50 against EP4 was found to be 0.013 µM; at EP2, 0.208 µM; at PTRGER4 (EP4) it was 0.014 µM.

In the case of `CCOc1cc(-c2cc(NCCc3ccc(OC)c(Br)c3)ncn2)sc1C(=O)O` [Example 74, 5-{6-[2-(3-Bromo-4-methoxy-phenyl)-ethylamino]-pyrimidin-4-yl}-3-ethoxy-thiophene-2-carboxylic acid], the IC50 against EP4 was 0.033 µM; against EP2, 0.533 µM; against PTRGER4 (EP4) it was 0.09 µM.

Regarding `CCOc1cc(-c2cc(NCCc3cccc(Cl)c3)ncn2)sc1C(=O)O` [Example 77, 5-{6-[2-(3-Chloro-phenyl)-ethylamino]-pyrimidin-4-yl}-3-ethoxy-thiophene-2-carboxylic acid], the IC50 stood at 0.108 µM against EP4, 0.415 µM at EP2 and 0.121 µM against PTRGER4 (EP4).

For the molecule `CCOc1cc(-c2cc(NCCc3cc(OC)cc(OC)c3)ncn2)sc1C(=O)O` [Example 67, 5-{6-[2-(3,5-Dimethoxy-phenyl)-ethylamino]-pyrimidin-4-yl}-3-ethoxy-thiophene-2-carboxylic acid], the IC50 against EP4 was 0.245 µM; on EP2, 0.712 µM; at PTRGER4 (EP4), 0.261 µM.

`CCOc1cc(-c2cc(NCCc3cccc(F)c3)ncn2)sc1C(=O)O` [Example 81, 3-Ethoxy-5-{6-[2-(3-fluoro-phenyl)-ethylamino]-pyrimidin-4-yl}-thiophene-2-carboxylic acid]: the IC50 was 0.125 µM on EP4, 0.318 µM against EP2 and 0.554 µM against PTRGER4 (EP4).

Regarding `CCOc1cc(-c2cc(NCCc3ccc(C)cc3C)ncn2)sc1C(=O)O` [Example 57, 5-{6-[2-(2,4-Dimethyl-phenyl)-ethylamino]-pyrimidin-4-yl}-3-ethoxy-thiophene-2-carboxylic acid], the IC50 was 0.166 µM at EP4, 0.295 µM against EP2 and 1.16 µM on PTRGER4 (EP4).

In the case of `CCOc1cc(-c2cc(NCCc3ccccc3Br)ncn2)sc1C(=O)O` [Example 70, 5-{6-[2-(2-Bromo-phenyl)-ethylamino]-pyrimidin-4-yl}-3-ethoxy-thiophene-2-carboxylic acid], the IC50 against PTGER2 (EP2) was 0.26 µM; on EP4, 0.554 µM; against EP2, 0.139 µM.

Regarding `O=c1nc(-c2ccc(-c3cc(NCCc4c(F)cc(Br)cc4F)ncn3)cc2)o[nH]1` [Example 34, 5-(4-(6-((4-Bromo-2,6-difluorophenethyl)amino)pyrimidin-4-yl)phenyl)-[1,2,4]oxadiazol-3(2H)-one], the IC50 at EP4 turned out to be 0.676 µM; against EP2 it was 0.437 µM; on PTRGER4 (EP4), 0.261 µM.

Consider `CCOc1cc(Br)ccc1CCNc1cc(-c2ccc(C(=O)O)c(OCC)c2)ncn1` [Example 51, 4-{6-[2-(4-Bromo-2-ethoxy-phenyl)-ethylamino]-pyrimidin-4-yl}-2-ethoxy-benzoic acid], for which the concentration for half-maximal inhibition (IC50) against PTGER2 (EP2) amounted to 0.039 µM; on EP4, 0.684 µM; against EP2 it was 0.072 µM.

In the case of `CCOc1cc(-c2cc(NCCc3ccccc3Cl)ncn2)sc1C(=O)O` [Example 78, 5-{6-[2-(2-Chloro-phenyl)-ethylamino]-pyrimidin-4-yl}-3-ethoxy-thiophene-2-carboxylic acid], the IC50 at PTGER2 (EP2) is 0.176 µM; at EP4 it was 0.458 µM; against EP2, 0.149 µM.

In the case of `CCOc1cc(-c2cc(NCCc3ccc(C(F)(F)F)cc3F)ncn2)sc1-c1noc(=O)[nH]1` [Example 93, 3-(3-Ethoxy-5-{6-[2-(2-fluoro-4-trifluoromethyl-phenyl)-ethylamino]-pyrimidin-4-yl}-thiophen-2yl)-[1,2,4]oxadiazol-5(4H)-one], the IC50 came out at 0.006 µM on EP4, 0.509 µM on EP2 and 0.003 µM against PTRGER4 (EP4).

`Oc1cc(-c2ccc(-c3cc(NCCc4c(F)cc(Br)cc4F)ncn3)cc2)on1` [Example 33, 5-(4-{6-[2-(4-Bromo-2,6-difluoro-phenyl)-ethylamino]-pyrimidin-4-yl}-phenyl)-isoxazol-3-ol]: the IC50 against EP4 turned out to be 0.149 µM; at EP2, 1.13 µM; on PTRGER4 (EP4), 0.156 µM.

`CCOc1cc(-c2cc(NCCc3ccc(Br)cc3N3CCCC3)ncn2)sc1-c1noc(=O)[nH]1` [Example 112, 3-(5-{6-[2-(4-Bromo-2-pyrrolidin-1-yl-phenyl)-ethylamino]-pyrimidin-4-yl}-3-ethoxy-thiophen-2yl)-[1,2,4]oxadiazol-5(4H)-one]: the half-maximal inhibitory concentration (IC50) on EP4 turned out to be 0.192 µM; against EP2, 0.892 µM; at PTRGER4 (EP4) it was 0.08 µM.

On to `Cc1ccc(CCNc2cc(-c3ccc(C(=O)O)c(OC4CCC4)c3)ncn2)cc1C` [Example 20, 2-Cyclobutoxy-4-{6-[2-(3,4-dimethyl-phenyl)-ethylamino]-pyrimidin-4-yl}-benzoic acid], for which the IC50 against EP4 is 0.574 µM; against EP2, 0.498 µM; at PTRGER4 (EP4), 0.446 µM.
